From article PMC7470102, “Synthesis, anticancer evaluation and molecular docking studies of new benzimidazole- 1,3,4-oxadiazole derivatives as human topoisomerase types I poison” (Journal of Enzyme Inhibition and Medicinal Chemistry, 2020) come the findings set out here.

Series [1] has as its system A549 (lung carcinoma cell line). Kind of series: MTT cytotoxicity assay, A549. The class given is cell-based. The settings on record: Homo sapiens, A549, MTT assay, read-out: IC50 against A549. As to the method:
(§1) The anticancer activity of compounds 5a–5o were screened according to the MTT assays. The MTT assays were performed as previously described[32]^,[33]. Anticancer activity of final compounds was assessed against five different cancer cell lines A549 (lung carcinoma cell line), HeLa (cervical cell line), MCF-7 (human breast adenocarcinoma cell line), HepG2 (human liver carcinoma cell line) and C6 (rat glioma cell line) cell lines as well as NIH3T3 (mouse embryo fibroblast cell line). Doxorubicin and Hoechst 33342 were used as the reference drugs in the MTT assays.
(§2) The benzimidazole-1,3,4-oxadiazole derivatives (5a-5o) were tested their cytotoxic effects in vitro using five cancer cell line A549 (lung carcinoma cell line), HeLa (cervical cell line), MCF-7 (human breast adenocarcinoma cell line), HepG2 (human liver carcinoma cell line) and C6 (rat glioma cell line) cell lines as well as NIH3T3 (mouse embryo fibroblast cell line). Doxorubicin and Hoechst 33342 were used for this study as a reference drugs.

Series [2] deals with MCF-7 (human breast adenocarcinoma cell line). Kind of series: MTT cytotoxicity assay, MCF-7. The class given is cell-based. The settings on record: Homo sapiens, MCF7, MCF-7 cell line, read-out: IC50 against MCF-7. The method, then:
as §1, §2
(In general: Tetrazolium dyes change colour on reduction, which living cells bring about.)

Series [3] concerns HepG2 (human liver carcinoma cell line). Kind of series: MTT cytotoxicity assay, HepG2. The class given is cell-based. The conditions noted are these: Homo sapiens, read-out: IC50 against HepG2. As to the method: as §1, §2
In series [4] the test system is C6 (rat glioma cell line). Kind of series: MTT cytotoxicity assay, C6. The class given is cell-based. The settings on record: Rattus norvegicus, read-out: IC50 against C6. The method, then:
as §1, §2

For series [5], the system named is HeLa (cervical cell line). Kind of series: MTT cytotoxicity assay, HeLa. The class given is cell-based. The conditions noted are these: Homo sapiens, read-out: IC50 against HeLa. As to the method:
as §1, §2

In series [6] the test system is NIH3T3 (mouse embryo fibroblast cell line). Kind of series: MTT cytotoxicity assay, NIH3T3 healthy cells. The class given is cell-based. The settings on record: Mus musculus, read-out: IC50 against NIH3T3. As to the method:
The anticancer activity of compounds 5a–5o were screened according to the MTT assays. The MTT assays were performed as previously described[32]^,[33]. Anticancer activity of final compounds was assessed against five different cancer cell lines A549 (lung carcinoma cell line), HeLa (cervical cell line), MCF-7 (human breast adenocarcinoma cell line), HepG2 (human liver carcinoma cell line) and C6 (rat glioma cell line) cell lines as well as NIH3T3 (mouse embryo fibroblast cell line). Doxorubicin and Hoechst 33342 were used as the reference drugs in the MTT assays. It is crucial that an anticancer agent affects the cancer cell line but having minimal or no side-effect on healthy cells. For this purpose, the cytotoxic effects of the active compounds on the NIH3T3 cell line were investigated (Table 2).

The target of a further series is T1, Topoisomerase I (Homo sapiens, UniProt P11387).
T1 construct: purchased TopoGen TG1018-2
T1 sequence (P11387 1-765): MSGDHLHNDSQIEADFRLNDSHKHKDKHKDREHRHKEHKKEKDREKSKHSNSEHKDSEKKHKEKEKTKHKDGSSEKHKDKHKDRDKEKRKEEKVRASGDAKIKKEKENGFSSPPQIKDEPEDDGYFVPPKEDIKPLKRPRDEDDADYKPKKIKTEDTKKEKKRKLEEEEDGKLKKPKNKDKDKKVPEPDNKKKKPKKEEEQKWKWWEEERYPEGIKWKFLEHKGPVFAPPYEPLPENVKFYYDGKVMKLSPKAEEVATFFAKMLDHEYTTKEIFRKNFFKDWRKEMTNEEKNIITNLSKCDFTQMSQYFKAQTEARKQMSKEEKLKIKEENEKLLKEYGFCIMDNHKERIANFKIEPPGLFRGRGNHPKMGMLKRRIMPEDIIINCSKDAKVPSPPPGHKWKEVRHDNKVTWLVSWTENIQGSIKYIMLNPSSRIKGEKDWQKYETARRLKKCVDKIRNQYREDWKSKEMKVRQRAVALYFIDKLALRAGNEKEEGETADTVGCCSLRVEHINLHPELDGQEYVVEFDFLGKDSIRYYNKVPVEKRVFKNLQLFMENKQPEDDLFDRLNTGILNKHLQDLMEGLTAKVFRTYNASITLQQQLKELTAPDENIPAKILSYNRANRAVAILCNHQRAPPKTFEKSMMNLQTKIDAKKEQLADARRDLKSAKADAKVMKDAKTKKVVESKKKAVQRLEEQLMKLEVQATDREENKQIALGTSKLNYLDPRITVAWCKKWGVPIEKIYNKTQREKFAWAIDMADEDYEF
Kind of series: DNA topoisomerase I assay (relaxation of supercoiled plasmid DNA, agarose gel). The class given is biochemical. The conditions noted are these: agarose gel electrophoresis, camptothecin positive control, Figure 12. As to the method:
The topoisomerase I inhibition activities of final compounds were measured as relaxation of supercoiled plasmid DNA using agarose gel electrophoresis and camptothecin was used as a positive control. The assay was carried out in a final volume of 20 µl reaction volume containing 2 µl of 10xTGS Buffer, 6 µl water, 2 µl supercoiled plasmid DNA, 2 µl test compound, 2 µl of Top1, 2 ul 10% SDS, 2 µl proteinase K, 2 µl DNA loading dye. After incubation of reaction mixtures at 37 °C for 30 min, electrophoresis was done on a 1% agarose gel at a potential 50 V for 75 min using 1xTAE buffer.
To determine whether the DNA intercalation properties of compounds 5a, 5b, 5d, 5e, 5k, 5l, 5n and 5o might result in Topo I inhibition, agarose gel electrophores is assay was performed to evaluate the Topo I inhibitory activity of them via agarose-gel electrophoresis and CPT was used as the positive control. The TopoGEN Topoisomerase I Drug Screening Kit were optimised and implemented to accomplish this goal.
In a previous studies, it was said that the compounds poisoning topoisomerase caused the formation of nick bands in such gel appearances, while the formation of Supercoiled bands was said to be caused by catalytic inhibitors that bound to either DNA or enzyme[40]^,[41].

The test system of another series is MCF-7 cell line. Kind of series: Flow cytometric analysis (Annexin V/PI), MCF-7. The class given is cell-based, human. The settings on record: MCF-7 cells. The method, then: Death pathway of the carcinogenic cell lines was detected by Annexin V-FITC Apoptosis Detection Kit (BD, Pharmingen) as reported previously described. […] FCS Express software was used to display the percent of normal and apoptotic cells at different stages. […] The experiments were carried out in triplicates.
Annexin V/PI staining on tested cancer cells treated with the active compounds was performed to investigate induction of apoptosis. […] According to the MTT assay, compound 5n for A549 cell line; compounds 5a, 5d, 5e, 5o for MCF-7 cell line; compound 5k for C6 cell line; compound 5a for HepG2 cell line; compounds 5b, 5l and 5n for HeLa cell line were selected for the flow cytometric analysis. Furthermore, flow cytometry studies were performed for reference drug doxorubicin. Flow cytometric analysis diagrams of tested compounds and doxorubicin at IC50/2, IC50, and 2xIC50 concentrations on cancer cells were presented in Figures 7–11.
For orientation: A flow cytometer gives signals particle by particle.

For orientation: IC50 means the concentration at which inhibition is half-maximal. Broadly, the melting point is the temperature of the solid-liquid transition. In turn, `COc1ccc(-c2nc3ccc(-c4nnc(SCC(=O)N5CCN(C)CC5)o4)cc3[nH]2)cc1` [5f, 2-((5-(2-(4-Methoxyphenyl)-1H-benzo[d]imidazol-6-yl)-1,3,4-oxadiazol-2-yl)thio)-1–(4-methyl-piperazin-1-yl)-ethane-1-on] displayed a melting point of 156.6 to 158.7 °C. The IC50 in series [1] was ≥ 100 µM. Also, the IC50 in series [2] was ≥ 100 µM. Also, the 50% inhibitory concentration (IC50) in series [3] was ≥ 100 µM. For the same compound, the IC50 in [4] is ≥ 100 µM. Also, the IC50 in [5] was ≥ 100 µM.
Regarding `O=C(CSc1nnc(-c2ccc3nc(-c4ccc(O)cc4)[nH]c3c2)o1)N1CCN(c2ccccn2)CC1` [5d, 2-((5-(2-(4-Hydroxyphenyl)-1H-benzo[d]imidazol-6-yl)-1,3,4-oxadiazol-2-yl)thio)-1-(4-(pyridin-2-yl)-piperazin-1-yl)-ethane-1-on], the IC50 in series [6] was 720.6 ± 5.03 µM; in series [2], 9.15 ± 0.391 µM; in [3] it was ≥ 100 µM; in series [4], 38.9 ± 1.92 µM; in series [5] it was ≥ 100 µM. Also, the “Topo I inhibition activity” value at Topoisomerase I is on record as “potent topo I inhibition activity”. Also, the “percentage of apoptosis (early + late apoptotic cells)” value with MCF-7 cell line was found to be 22.3%.
In turn, `O=C(CSc1nnc(-c2ccc3nc(-c4ccc(O)cc4)[nH]c3c2)o1)N1CCN(c2ccccc2)CC1` [5c, 2-((5–(2-(4-Hydroxyphenyl)-1H-benzo[d]imidazol-6-yl)-1,3,4-oxadiazol-2-yl)thio)-1–(4-(phenyl) -piperazin-1-yl) -ethane-1-on] returned a melting point of 271.1 to 273.4 °C. The 50% inhibitory concentration (IC50) in series [6] was determined as 44.56 ± 0.221 µM. Besides, the IC50 in series [1] was ≥ 100 µM. The IC50 in series [2] is ≥ 100 µM. Besides, the half-inhibitory concentration (IC50) in series [3] was 21.9 ± 0.991 µM. Further, the IC50 in series [4] is ≥ 100 µM. Also, the IC50 in series [5] amounted to 20.3 ± 1.1 µM.
As to `CCOc1ccc(-c2nc3ccc(-c4nnc(SCC(=O)N5CCN(c6ncccn6)CC5)o4)cc3[nH]2)cc1` [5o, 2-((5-(2-(4-Ethoxyphenyl)-1H-benzo[d]imidazol-6-yl)-1,3,4-oxadiazol-2-yl)thio)-1–(4-(pyrimidine-2-yl)-piperazin-1-yl)-ethane-1-on], the half-maximal inhibitory concentration (IC50) in series [6] is 44.1 ± 2.1 µM; in series [2], 6.44 ± 0.287 µM; in [3], 59.4 ± 2.59 µM; in [4] it was 25 ± 1.24 µM; in series [5], ≥ 100 µM. For the same compound, the “Topo I inhibition activity” value on Topoisomerase I was “potent topo I inhibition activity”. For the same compound, the “percentage of apoptosis (early + late apoptotic cells)” value in the series on MCF-7 cell line turned out to be 8.7%.
Compound `COc1ccc(-c2nc3ccc(-c4nnc(SCC(=O)N5CCN(c6ccccc6)CC5)o4)cc3[nH]2)cc1` [5h, 2-((5-(2-(4-Methoxyphenyl)-1H-benzo[d]imidazol-6-yl)-1,3,4-oxadiazol-2-yl)thio)-1–(4-(phenyl)-piperazin-1-yl)-ethane-1-on] returned a melting point of 166.7 to 169.2 °C. Besides, the IC50 in series [1] was ≥ 100 µM. The IC50 in [2] is ≥ 100 µM. For the same compound, in series [3], the IC50 was ≥ 100 µM. Further, in [4], the IC50 was ≥ 100 µM. In addition, the IC50 in series [5] was ≥ 100 µM.
Compound `COc1ccc(-c2nc3ccc(-c4nnc(SCC(=O)N5CCN(c6ccccn6)CC5)o4)cc3[nH]2)cc1` [5ı, 2-((5-(2-(4-Methoxyphenyl)-1H-benzo[d]imidazol-6-yl)-1,3,4-oxadiazol-2-yl)thio)-1–(4-(pyridin-2-yl)-piperazin-1-yl)-ethane-1-on] showed a melting point of 168.3 to 170.1 °C. Besides, the IC50 in series [1] is ≥ 100 µM. The 50% inhibitory concentration (IC50) in series [2] was ≥ 100 µM. In series [3], the IC50 is ≥ 100 µM. For the same compound, in series [4], the concentration for half-maximal inhibition (IC50) was ≥ 100 µM. Also, the IC50 in series [5] was ≥ 100 µM.
Compound `CCOc1ccc(-c2nc3ccc(-c4nnc(SCC(=O)N5CCN(c6ccccc6)CC5)o4)cc3[nH]2)cc1` [5m, 2-((5-(2-(4-Ethoxyphenyl)-1H-benzo [d]imidazol-6-yl)-1,3,4-oxadiazol-2-yl)thio)-1–(4-(phenyl)-piperazin-1-yl)-ethane-1-on] showed a melting point of 262.5 to 263.9 °C. In addition, the IC50 in series [6] is 52.3 ± 2.51 µM. The IC50 in [1] is ≥ 100 µM. Besides, in [2], the IC50 was ≥ 100 µM. In series [3], the IC50 was ≥ 100 µM. In addition, the IC50 in [4] turned out to be 32.2 ± 1.55 µM. The IC50 in series [5] was ≥ 100 µM.
In turn, `CCN1CCN(C(=O)CSc2nnc(-c3ccc4nc(-c5ccc(OC)cc5)[nH]c4c3)o2)CC1` [5g, 2-((5-(2-(4-Methoxyphenyl)-1H-benzo[d]imidazol-6-yl)-1,3,4-oxadiazol-2-yl)thio)-1–(4-ethyl-piperazin-1-yl)-ethane-1-on] gave a melting point of 180.4 to 181.9 °C. Moreover, the IC50 in series [1] was ≥ 100 µM. Besides, the IC50 in series [2] is ≥ 100 µM. In addition, the IC50 in series [3] was ≥ 100 µM. The IC50 in [4] is ≥ 100 µM. For the same compound, the half-maximal inhibitory concentration (IC50) in series [5] was ≥ 100 µM.
In turn, `COc1ccc(-c2nc3ccc(-c4nnc(SCC(=O)N5CCN(c6ncccn6)CC5)o4)cc3[nH]2)cc1` [5j, 2-((5-(2-(4-Methoxyphenyl)-1H-benzo[d]imidazol-6-yl)-1,3,4-oxadiazol-2-yl)thio)-1–(4-(pyrimidin-2-yl)-piperazin-1-yl)-ethane-1-on] came in with a melting point of 118.7 to 120.3 °C. In [1], the IC50 is ≥ 100 µM. Further, the IC50 in series [2] was ≥ 100 µM. In series [3], the IC50 is ≥ 100 µM. The IC50 in series [4] is ≥ 100 µM. Besides, the IC50 in [5] was ≥ 100 µM.
Regarding `CCOc1ccc(-c2nc3ccc(-c4nc5cc(N6CCN(C)CC6)ccc5[nH]4)cc3[nH]2)cc1` [Hoechst 33342, reference compound], the IC50 is 7.39 ± 0.269 µM in series [6], 2.4 ± 0.118 µM in [2], 27.8 ± 1.19 µM in series [3] and 0.306 ± 0.015 µM in series [5].
